A word on the melting point: it is the temperature, or range, at which the solid turns liquid.

Consider 5 compounds from paper PMC4446620, “Bioactive Metabolites from Mangrove Endophytic Fungus Aspergillus sp. 16-5B” (Marine Drugs, 2015).

SMILES strings stand for the structures. “Also recorded” adds a separate entry of the source.

Data set [1] has as its target α-glucosidase (Saccharomyces cerevisiae, UniProt P53341). The data set can be described thus: Assay for α-glucosidase inhibitory activity. The format is biochemical. The settings on record: for inhibitory effect against α-glucosidase compared with acarbose, in words: versus the clinical α-glucosidase inhibitor acarbose. As to the method:
All of the tests for α-glucosidase inhibitory activity were according to a previously described method. […] The reaction was monitored spectrophotometrically by measuring the absorbance at 400 nm for 1-min intervals. […] The IC50 values of the compounds were calculated by nonlinear regression analysis and expressed as the mean ± SD of two distinct experiments. Kinetic parameters were determined using the Lineweaver-Burk double-reciprocal plot method at increasing concentrations of substrates and inhibitors.

Chain of α-glucosidase (P53341 whole entry): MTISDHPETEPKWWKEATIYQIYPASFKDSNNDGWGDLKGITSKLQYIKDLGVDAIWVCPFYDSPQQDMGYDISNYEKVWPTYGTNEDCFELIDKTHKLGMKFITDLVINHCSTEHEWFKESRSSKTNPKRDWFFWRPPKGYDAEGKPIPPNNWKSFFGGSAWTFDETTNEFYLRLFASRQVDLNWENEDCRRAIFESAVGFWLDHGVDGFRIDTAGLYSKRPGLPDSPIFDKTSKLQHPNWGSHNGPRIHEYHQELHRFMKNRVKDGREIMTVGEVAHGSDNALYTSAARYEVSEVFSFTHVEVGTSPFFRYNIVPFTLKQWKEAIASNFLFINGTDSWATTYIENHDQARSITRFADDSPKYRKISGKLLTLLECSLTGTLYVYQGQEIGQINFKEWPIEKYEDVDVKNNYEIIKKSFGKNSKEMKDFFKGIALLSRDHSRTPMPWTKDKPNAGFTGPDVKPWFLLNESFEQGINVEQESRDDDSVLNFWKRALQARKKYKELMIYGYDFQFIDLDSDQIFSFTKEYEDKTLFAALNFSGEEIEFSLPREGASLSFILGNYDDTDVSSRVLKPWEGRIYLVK

Turning to `CC=Cc1cc2c(o1)C(=O)C(C)(OC(=O)c1c(C)cc(O)cc1O)C(O)C2` (stereo not shown) [Compound 1, aspergifuranone], the melting point fell in the range of 121.1 to 121.6 °C. In addition, the “inhibition type of α-glucosidase (kinetic analysis)” value in data set [1] (Lineweaver-Burk plot method) is listed as “noncompetitive inhibitor; also recorded: noncompetitive inhibition”. Moreover, in data set [1], the “inhibitory effect against α-glucosidase compared with acarbose, in words” value was “more potent inhibitory effects”.
On to `COC1(C)OC(=O)c2c(cc(O)c(C)c2O)C1O` (stereo not shown) [Compound 2], for which the melting point was in the range of 174.4 to 174.9 °C. In data set [1], the “α-glucosidase inhibitory activity, in words” value is “moderate inhibitory activities” and the “inhibitory effect against α-glucosidase compared with acarbose, in words” value is listed as “more potent inhibitory effects”.
`COC1(C)OC(=O)c2c(cc(O)c(C)c2O)C1=O` (stereo not shown) [Compound 3] yielded a melting point of 134.2 to 134.8 °C.
For the compound `CCC[C@@]1(O)OC(=O)c2c1cc(O)c(O)c2C` [Compound 4, (R)-3-demethylpurpurester A], the melting point lay in the range of 201.2 to 201.9 °C.
For the compound `Cc1c(O)cc2c(c1O)C(=O)O[C@@H]2[C@H](C)O` [Compound 6, pestaphthalides A], in data set [1], the “α-glucosidase inhibitory activity, in words” value is “moderate inhibitory activities” and the “inhibitory effect against α-glucosidase compared with acarbose, in words” value is reported as “more potent inhibitory effects”.
